The text below walks through data of article PMC9891369, “Deconvoluting binding sites in amyloid nanofibrils using time-resolved spectroscopy” (Chemical Science, 2023).

Structures are written as SMILES.

The target of experiment [1] is T1, amyloid-β fibrils (Aβ1–40) (Homo sapiens, UniProt P05067).
T1 construct: gene APP; synthetic Aβ1–40, fibrillar
Kind of experiment: time-resolved photoluminescence titration, two-site non-cooperative fit. It is filed as binding. To be noted: read-out: Values ^a.

The target in experiment [2] is T1, amyloid-β fibrils (Aβ1–40). Kind of experiment: time-resolved photoluminescence titration, two-site fit. It counts as binding.

T1 sequence (P05067 672-711): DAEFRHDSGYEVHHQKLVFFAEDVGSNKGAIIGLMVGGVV

With `[Ru+2].c1ccc(-c2ccccn2)nc1.c1ccc(-c2ccccn2)nc1.c1cnc2c(c1)c1nc3nccnc3nc1c1cccnc12` [[Ru(bpy)2(dpqp)]^2+], in experiment [1], the Kd is 2.2 ± 0.5 µM.

`[Ru+2].c1ccc(-c2ccccn2)nc1.c1ccc(-c2ccccn2)nc1.c1ccc(-c2ccccn2)nc1` [[Ru(bpy)3]^2+] showed a Kd in experiment [2] of 4.6 µM.
